Data: ChEMBL document CHEMBL3885861, “Open TG-GATES”

Organism: Rattus norvegicus
Experiment: Open TG-GATES - Regimen: Single
Assay type: toxicity, organism-based, Sprague-Dawley
Parameters: regimen Single, gender Male, age 6 weeks
Details: in vivo, iv, 0 mg/kg, route intravenous injection, dose level Control; for Bas / Eos / Hb / Ht / Lym / MCH / MCHC / MCV / Mono / Neu / Plat / RBC / Ret: tissue Blood; for KIDNEY_L / KIDNEY_R / KIDNEY_TOTAL: tissue Kidney; for ALT / AST / CRE / DBIL / GLC / K / LDH / Na / PL / RALB / TBIL / TC / TP / gamma-GTP: tissue Plasma

SMILES: CC(C)C[C@H](NC(=O)[C@H](Cc1ccccc1)NC(=O)c1cnccn1)B(O)O [BORTEZOMIB]
- TERMINAL_BW (3 h): 223 g
- Bas (3 h): 0%
- Eos (3 h): 0.8%
- Hb (3 h): 13.9 g/dL
- Ht (3 h): 39.5%
- Lym (3 h): 81.4%
- MCH (3 h): 22.9 pg
- MCHC (3 h): 35.2%
- MCV (3 h): 65.1 fL
- Mono (3 h): 2.6%
- Neu (3 h): 14.8%
- Plat (3 h): 124.1 x10_4/uL
- RBC (3 h): 607 x10_4/ul
- Ret (3 h): 9.3%
- KIDNEY_L (3 h): 0.9 g
- KIDNEY_R (3 h): 0.9 g
- KIDNEY_TOTAL (3 h): 1.9 g
- ALT (3 h): 38.6 IU/L
- AST (3 h): 70.4 IU/L
- CRE (3 h): 0.2 mg/dL
- DBIL (3 h): 0 mg/dL
- GLC (3 h): 191.2 mg/dL
- K (3 h): 3.9 meq/L
- LDH (3 h): 175.8 IU/L
- Na (3 h): 142.3 meq/L
- PL (3 h): 138.6 mg/dL
- RALB (3 h): 4.1 g/dL
- TBIL (3 h): 0.006 mg/dL
- TC (3 h): 74.6 mg/dL
- TP (3 h): 5.6 g/dL
- gamma-GTP (3 h): 0.7 IU/L
- TERMINAL_BW (6 h): 220.7 g
- Bas (6 h): 0%
- Eos (6 h): 0.4%
- Hb (6 h): 13.7 g/dL
- Ht (6 h): 38.8%
- Lym (6 h): 77.6%
- MCH (6 h): 22.1 pg
- MCHC (6 h): 35.4%
- MCV (6 h): 62.5 fL
- Mono (6 h): 2.8%
- Neu (6 h): 18.4%
- Plat (6 h): 117.1 x10_4/uL
- RBC (6 h): 622.4 x10_4/ul
- Ret (6 h): 8.7%
- KIDNEY_L (6 h): 1 g
- KIDNEY_R (6 h): 1 g
- KIDNEY_TOTAL (6 h): 2 g
- ALT (6 h): 37 IU/L
- AST (6 h): 78.8 IU/L
- CRE (6 h): 0.2 mg/dL
- DBIL (6 h): 0 mg/dL
- GLC (6 h): 176.6 mg/dL
- K (6 h): 4.4 meq/L
- LDH (6 h): 219.2 IU/L
- Na (6 h): 141.6 meq/L
- PL (6 h): 141.4 mg/dL
- RALB (6 h): 4 g/dL
- TBIL (6 h): 0.014 mg/dL
- TC (6 h): 75.4 mg/dL
- TP (6 h): 5.6 g/dL
- gamma-GTP (6 h): 0.8 IU/L
- TERMINAL_BW (9 h): 222.6 g
- Bas (9 h): 0%
- Eos (9 h): 1%
- Hb (9 h): 14 g/dL
- Ht (9 h): 40.5%
- Lym (9 h): 71%
- MCH (9 h): 22.2 pg
- MCHC (9 h): 34.5%
- MCV (9 h): 64.3 fL
- Mono (9 h): 3.4%
- Neu (9 h): 24.4%
- Plat (9 h): 108.5 x10_4/uL
- RBC (9 h): 630.2 x10_4/ul
- Ret (9 h): 9.3%
- KIDNEY_L (9 h): 1 g
- KIDNEY_R (9 h): 1 g
- KIDNEY_TOTAL (9 h): 1.9 g
- ALT (9 h): 39.8 IU/L
- AST (9 h): 78 IU/L
- CRE (9 h): 0.2 mg/dL
- DBIL (9 h): 0 mg/dL
- GLC (9 h): 179.4 mg/dL
- K (9 h): 3.9 meq/L
- LDH (9 h): 187.2 IU/L
- Na (9 h): 141.5 meq/L
- PL (9 h): 139 mg/dL
- RALB (9 h): 3.9 g/dL
- TBIL (9 h): 0.022 mg/dL
- TC (9 h): 78.6 mg/dL
- TP (9 h): 5.5 g/dL
- gamma-GTP (9 h): 0.8 IU/L
- TERMINAL_BW (24 h): 236.7 g
- Bas (24 h): 0%
- Eos (24 h): 0.6%
- Hb (24 h): 13.8 g/dL
- Ht (24 h): 38.2%
- Lym (24 h): 81.2%
- MCH (24 h): 22.9 pg
- MCHC (24 h): 36.1%
- MCV (24 h): 63.5 fL
- Mono (24 h): 3%
- Neu (24 h): 14.6%
- Plat (24 h): 113.7 x10_4/uL
- RBC (24 h): 603 x10_4/ul
- Ret (24 h): 8%
- KIDNEY_L (24 h): 1.1 g
- KIDNEY_R (24 h): 1 g
- KIDNEY_TOTAL (24 h): 2.1 g
- ALT (24 h): 42 IU/L
- AST (24 h): 74.4 IU/L
- CRE (24 h): 0.2 mg/dL
- DBIL (24 h): 0 mg/dL
- GLC (24 h): 182.4 mg/dL
- K (24 h): 4.2 meq/L
- LDH (24 h): 190.4 IU/L
- Na (24 h): 140.8 meq/L
- PL (24 h): 146.4 mg/dL
- RALB (24 h): 4 g/dL
- TBIL (24 h): 0.002 mg/dL
- TC (24 h): 74.2 mg/dL
- TP (24 h): 5.7 g/dL
